GI50 and TGI data for eight molecules are collected here from PubChem BioAssay (NCI).

What all share (assay): NCI-60 cell line screen, 48 h
Experiment [1] has as its system UACC-62 melanoma.
In experiment [2] the test system is SW-620 colon.
Experiment [3] deals with HCT-15 colon.
Experiment [4] deals with SK-MEL-2 melanoma.
For experiment [5], the system named is MOLT-4 leukemia.
In experiment [6] the test system is IGROV1 ovarian.
Experiment [7] deals with LOX IMVI melanoma.
Experiment [8] has as its system NCI-H226 lung.
Experiment [9] deals with OVCAR-4 ovarian.
For experiment [10], the system named is SN12C renal.

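Method: 48-hour compound exposure of cells in 96-well plates, five concentrations, linear interpolation of endpoints. At the GI50, growth is halved. TGI denotes the concentration required for complete inhibition of growth.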

On to `C[C@H]1O[C@@H](O[C@H]2[C@@H](O)C[C@H](O[C@H]3[C@@H](O)C[C@H](O[C@H]4CC[C@]5(C)C6C[C@@H](O)[C@]7(C)[C@@H](C8=CC(=O)OC8)CC[C@]7(O)C6CC[C@@H]5C4)O[C@@H]3C)O[C@@H]2C)C[C@H](O)[C@@H]1O` (stereo not given in full), for which the GI50 is 103 nM in experiment [1]; 49 nM in experiment [2]; 128 nM in [3]; 121 nM in experiment [4]; 17.6 nM in [5]; 145 nM in [6]. For the same molecule, the GI50 is 60 nM in experiment [7], 102 nM in [8], 101 nM in experiment [9] and 26.6 nM in experiment [10]. Moreover, the TGI in [1] came to 228 nM; in experiment [2], 174 nM; in experiment [3] it was 366 nM; in [4] it was 328 nM; in experiment [5] it was 147 nM; in [6] it was 3450 nM. Besides, the TGI was determined as 141 nM in experiment [7], 191 nM in [8], 306 nM in experiment [9] and 457 nM in [10].

For the molecule `O=C(/C=C\c1cccc([N+](=O)[O-])c1)c1ccccc1`, the GI50 in experiment [1] was 7930 nM; in [2] it was 1810 nM; in [3] it was 2160 nM; in experiment [4], 3910 nM; in experiment [5] it was 3190 nM; in experiment [6], 2620 nM. The GI50 in experiment [7] is 1760 nM; in experiment [8] it was 18700 nM; in experiment [9], 3380 nM; in experiment [10], 3710 nM. The TGI was 22000 nM in experiment [1]; 5820 nM in experiment [2]; 5950 nM in [3]; 17900 nM in [4]; more than 100000 nM in [5]; more than 28600 nM in experiment [6]. Further, the TGI in experiment [7] was found to be 3820 nM; in experiment [8], 45900 nM; in [9] it was 12600 nM; in experiment [10] it was 14100 nM.

In the case of `N#CC(NC12CC3CC(CC(C3)C1)C2)c1ccccc1` (stereo not given), the TGI in experiment [1], in experiment [2], in experiment [3], in experiment [4], in experiment [5] and in experiment [6] was more than 100000 nM in each case. Moreover, the TGI in experiment [7], in experiment [8], in experiment [9] and in experiment [10] was more than 100000 nM throughout.

Consider `Cc1oncc1C(=O)Nc1ccc(C(F)(F)F)cc1`, for which the GI50 was 36000 nM in experiment [1]; 92500 nM in experiment [2]; 14100 nM in experiment [3]; more than 100000 nM in [4]; 36400 nM in experiment [5]; 26700 nM in experiment [6]. The GI50 in [7] is 19100 nM; in experiment [8], 35100 nM; in experiment [9], 25000 nM; in experiment [10], more than 100000 nM. The TGI in [1], in experiment [2], in experiment [3], in experiment [4], in experiment [5] and in [6] was more than 100000 nM each time. The TGI in [7], in [8], in experiment [9] and in experiment [10] was more than 100000 nM in each case.

On to `COC(=O)c1c2c(c[n+]([O-])c1C)C(=O)C(NCc1ccccc1)=CC2=O`, for which the GI50 was 334 nM in [1]; 319 nM in [2]; 354 nM in experiment [3]; 1190 nM in experiment [4]; 412 nM in experiment [5]; 368 nM in experiment [6]. The GI50 in [7] was 279 nM; in experiment [8], 1230 nM; in [9] it was 232 nM; in [10], 318 nM. The TGI in experiment [1] turned out to be 1060 nM; in experiment [2] it was 1290 nM; in experiment [3], 1530 nM; in experiment [4] it was 3350 nM; in experiment [5], 2590 nM; in experiment [6] it was 1490 nM. In addition, the TGI in [7] is 1320 nM; in experiment [8], 2840 nM; in [9], 835 nM; in experiment [10], 1220 nM.

As for `NC(=O)c1cccc(N)c1`, the GI50 in experiment [1], in [2], in [3], in [4], in experiment [5] and in experiment [6] was more than 100000 nM throughout. The GI50 in experiment [7], in [8], in experiment [9] and in experiment [10] was more than 100000 nM each time. The TGI in experiment [1], in experiment [2], in [3], in experiment [4], in experiment [5] and in [6] was more than 100000 nM each time. Besides, the TGI in [7], in experiment [8], in experiment [9] and in experiment [10] was more than 100000 nM throughout.

With `CCOc1ccc(/C=N/Nc2cc(C)nc3ccc(Cl)cc23)cc1`, the GI50 in [1] was 1790 nM; in [2] it was 1970 nM; in experiment [3], 1550 nM; in [4], 1900 nM; in experiment [5], 1890 nM; in [6], 1930 nM. For the same molecule, the GI50 in experiment [7] was 1730 nM; in experiment [8] it was 1850 nM; in [9], 1790 nM; in experiment [10], 1820 nM. Also, the TGI in experiment [1] was 3320 nM; in [2], 4020 nM; in [3], 2940 nM; in experiment [4], 3430 nM; in experiment [5] it was 3850 nM; in [6], 3640 nM. The TGI in experiment [7] was determined as 3140 nM; in [8] it was 3620 nM; in [9], 3510 nM; in [10] it was 3400 nM.

Regarding `Cc1ccccc1NC(=O)N/C(N)=N/c1nc2ccccc2s1`, the GI50 in [1] was 42.5 nM; in experiment [2] it was 42.7 nM; in [3], 43.4 nM; in experiment [4], more than 100000 nM; in [5], 56.9 nM; in [6] it was 79.6 nM. The GI50 is 75.9 nM in experiment [7], 589 nM in experiment [8], 667 nM in experiment [9] and 85.3 nM in experiment [10]. Besides, the TGI in [1], in [2], in [3], in [4], in experiment [5] and in [6] was more than 100000 nM throughout. The TGI in experiment [7], in experiment [8], in [9] and in [10] was more than 100000 nM throughout.
